Structures can show the parent of a compound that is named as a salt. Where two headings read alike, the source gives them in different places.
Assays:
[1] = cited from earlier work
[2] = Worst-case calculation (100% migration), standard EU Cube exposure model; conditions: for Worst Case Calculation of migration in EU Cube model (as a percentage of SML) / Worst-case calculation as a percentage of SML (or restriction), EU Cube: 100% migration; for Worst Case Calculation of migration in EU Cube model (as a percentage of SML): dry coat weight 2.0 g/m^2; for Worst Case Calculation of migration in EU Cube model: Basis for Safety outcome: volatile substance; for Worst-case calculation as a percentage of SML (or restriction), EU Cube: 2.0 g/m^2 dry film
[3] = Worst-case calculation, Application 1 yoghurt pot lid exposure scenario; conditions: 100% migration, 2.0 g/m^2 dry film
[4] = Worst-case calculation, Application 2 cheese packaging wrap exposure scenario; conditions: 100% migration, 2.0 g/m^2 dry film
[5] = Specific migration limit (SML) from regulation or hazard assessment (TTC, VEGA QSAR, Cramer Class); conditions: source HA (internal hazard assessment), self-derived SML; EU Cube model
[6] = substance in ink SBDEV980 (Ex. 4B Red)
[7] = source PR (EU Plastics Regulation No. 10/2011) or SO (Swiss Ordinance), EU Cube model
[8] = substance in ink SBDEV976 (Ex. 4C Cyan)
[9] = substance in ink SBDEV977 (Ex. 4A Yellow)
[10] = substance in ink SBDEV979 (Ex. 4D Black)
[11] = Source of SML or restriction: SO (Swiss Ordinance)
[12] = source of SML or restriction: SO (Swiss Ordinance)

O=C(O)c1c(-c2ccc(-c3ccccc3)cc2)[nH]c2nc(-c3ccc(-c4ccccc4)cc3)nc(-c3ccc(-c4ccccc4)cc3)c12 [2,4,6-Tris-Biphenyl-4-Yl-7H-Pyrrolo[2,3-D]Pyrimidine-5-Carboxylic Acid]
SML (or restriction) ([1]; Source of SML or restriction: Default 10 ppb): 0.01 mg substance/kg food
SML or Restriction (mg substance/kg food) ([1]; source Default 10 ppb): 0.01 mg substance/kg food
Worst Case Calculation of migration in EU Cube model (as a percentage of SML) [2, 6]: 380 percentage of SML

CCO [0000064-17-5, ethanol]
SML or Restriction (mg substance/kg food) [1, 7]: 60 mg substance/kg food
Worst Case Calculation of migration in EU Cube model: Basis for Safety outcome [2, 8]: Converter
Worst Case Calculation of migration in EU Cube model: Basis for Safety outcome [2, 9]: Converter
Worst Case Calculation of migration in EU Cube model: Basis for Safety outcome [2, 10]: Converter
Worst Case Calculation of migration in EU Cube model: Basis for Safety outcome [2, 6]: Converter

CCCOC(C)=O [Acetic acid, propyl ester]
SML (or restriction) [1, 11]: 60 mg substance/kg food
SML (or restriction) [1, 12]: 60 mg substance/kg food

CCCC1OC(CCC)OC(CCC)O1 (stereo not drawn) [0002396-43-2, 2,4,6-tripropyl-1,3,5-Trioxane]
Worst-case calculation as a percentage of SML (or restriction), Application 1 ([3]; product SBDEV976): 24.0 percentage of SML (or restriction)
Worst-case calculation as a percentage of SML (or restriction), Application 1 ([3]; product SBDEV977): 26.4 percentage of SML (or restriction)
Worst-case calculation as a percentage of SML (or restriction), Application 1 ([3]; product SBDEV980): 26.0 percentage of SML (or restriction)
Worst-case calculation as a percentage of SML (or restriction), Application 1 ([3]; product SBDEV1284): 26.0 percentage of SML (or restriction)
Worst-case calculation as a percentage of SML (or restriction), Application 1 ([3]; product SBDEV1285): 26.4 percentage of SML (or restriction)
Worst-case calculation as a percentage of SML (or restriction), Application 1 ([3]; product SBDEV1286): 24.0 percentage of SML (or restriction)
Worst-case calculation as a percentage of SML (or restriction), Application 1 ([3]; product SBDEV1287): 26.7 percentage of SML (or restriction)
Worst-case calculation as a percentage of SML (or restriction), Application 2 ([4]; product SBDEV976): 87.8 percentage of SML (or restriction)
Worst-case calculation as a percentage of SML (or restriction), Application 2 ([4]; product SBDEV977): 96.5 percentage of SML (or restriction)
Worst-case calculation as a percentage of SML (or restriction), Application 2 ([4]; product SBDEV980): 95.0 percentage of SML (or restriction)
Worst-case calculation as a percentage of SML (or restriction), Application 2 ([4]; product SBDEV1284): 95.0 percentage of SML (or restriction)
Worst-case calculation as a percentage of SML (or restriction), Application 2 ([4]; product SBDEV1285): 96.5 percentage of SML (or restriction)
Worst-case calculation as a percentage of SML (or restriction), Application 2 ([4]; product SBDEV1286): 87.8 percentage of SML (or restriction)
Worst-case calculation as a percentage of SML (or restriction), Application 2 ([4]; product SBDEV1287): 97.9 percentage of SML (or restriction)
SML or Restriction (mg substance/kg food) [5]: 0.09 mg substance/kg food
Worst-case calculation as a percentage of SML (or restriction), EU Cube ([2]; product SBDEV976): 61 percentage of SML (or restriction)
Worst-case calculation as a percentage of SML (or restriction), EU Cube ([2]; product SBDEV977): 67 percentage of SML (or restriction)
Worst-case calculation as a percentage of SML (or restriction), EU Cube ([2]; product SBDEV980): 60 percentage of SML (or restriction)
Worst-case calculation as a percentage of SML (or restriction), EU Cube ([2]; product SBDEV1284): 66 percentage of SML (or restriction)
Worst-case calculation as a percentage of SML (or restriction), EU Cube ([2]; product SBDEV1285): 67 percentage of SML (or restriction)
Worst-case calculation as a percentage of SML (or restriction), EU Cube ([2]; product SBDEV1286): 61 percentage of SML (or restriction)
Worst-case calculation as a percentage of SML (or restriction), EU Cube ([2]; product SBDEV1287): 68 percentage of SML (or restriction)
Worst Case Calculation of migration in EU Cube model (as a percentage of SML) [2, 8]: 61 percentage of SML
Worst Case Calculation of migration in EU Cube model (as a percentage of SML) [2, 9]: 67 percentage of SML
Worst Case Calculation of migration in EU Cube model (as a percentage of SML) [2, 10]: 65 percentage of SML
Worst Case Calculation of migration in EU Cube model (as a percentage of SML) [2, 6]: 66 percentage of SML

O=C1NCCN1 [0000120-93-4, 2-Imidazolidinone]
Worst-case calculation as a percentage of SML (or restriction), Application 1 ([3]; product SBDEV976): 6.3 percentage of SML (or restriction)
Worst-case calculation as a percentage of SML (or restriction), Application 1 ([3]; product SBDEV977): 5.9 percentage of SML (or restriction)
Worst-case calculation as a percentage of SML (or restriction), Application 1 ([3]; product SBDEV979): 5.9 percentage of SML (or restriction)
Worst-case calculation as a percentage of SML (or restriction), Application 1 ([3]; product SBDEV980): 6.3 percentage of SML (or restriction)
Worst-case calculation as a percentage of SML (or restriction), Application 1 ([3]; product SBDEV1284): 4.3 percentage of SML (or restriction)
Worst-case calculation as a percentage of SML (or restriction), Application 1 ([3]; product SBDEV1285): 4.7 percentage of SML (or restriction)
Worst-case calculation as a percentage of SML (or restriction), Application 1 ([3]; product SBDEV1286): 4.7 percentage of SML (or restriction)
Worst-case calculation as a percentage of SML (or restriction), Application 1 ([3]; product SBDEV1287): 4.3 percentage of SML (or restriction)
Worst-case calculation as a percentage of SML (or restriction), Application 2 ([4]; product SBDEV976): 23.0 percentage of SML (or restriction)
Worst-case calculation as a percentage of SML (or restriction), Application 2 ([4]; product SBDEV977): 21.6 percentage of SML (or restriction)
Worst-case calculation as a percentage of SML (or restriction), Application 2 ([4]; product SBDEV979): 21.6 percentage of SML (or restriction)
Worst-case calculation as a percentage of SML (or restriction), Application 2 ([4]; product SBDEV980): 23.0 percentage of SML (or restriction)
Worst-case calculation as a percentage of SML (or restriction), Application 2 ([4]; product SBDEV1284): 15.8 percentage of SML (or restriction)
Worst-case calculation as a percentage of SML (or restriction), Application 2 ([4]; product SBDEV1285): 17.3 percentage of SML (or restriction)
Worst-case calculation as a percentage of SML (or restriction), Application 2 ([4]; product SBDEV1286): 17.3 percentage of SML (or restriction)
Worst-case calculation as a percentage of SML (or restriction), Application 2 ([4]; product SBDEV1287): 15.8 percentage of SML (or restriction)
SML or Restriction (mg substance/kg food) [5]: 4.98 mg substance/kg food
Worst-case calculation as a percentage of SML (or restriction), EU Cube ([2]; product SBDEV976): 16 percentage of SML (or restriction)
Worst-case calculation as a percentage of SML (or restriction), EU Cube ([2]; product SBDEV977): 15 percentage of SML (or restriction)
Worst-case calculation as a percentage of SML (or restriction), EU Cube ([2]; product SBDEV979): 15 percentage of SML (or restriction)
Worst-case calculation as a percentage of SML (or restriction), EU Cube ([2]; product SBDEV980): 16 percentage of SML (or restriction)
Worst-case calculation as a percentage of SML (or restriction), EU Cube ([2]; product SBDEV1284): 11 percentage of SML (or restriction)
Worst-case calculation as a percentage of SML (or restriction), EU Cube ([2]; product SBDEV1285): 12 percentage of SML (or restriction)
Worst-case calculation as a percentage of SML (or restriction), EU Cube ([2]; product SBDEV1286): 12 percentage of SML (or restriction)
Worst-case calculation as a percentage of SML (or restriction), EU Cube ([2]; product SBDEV1287): 11 percentage of SML (or restriction)
Worst Case Calculation of migration in EU Cube model (as a percentage of SML) [2, 8]: 16 percentage of SML
Worst Case Calculation of migration in EU Cube model (as a percentage of SML) [2, 9]: 15 percentage of SML
Worst Case Calculation of migration in EU Cube model (as a percentage of SML) [2, 10]: 15 percentage of SML
Worst Case Calculation of migration in EU Cube model (as a percentage of SML) [2, 6]: 16 percentage of SML

CCCOC(C)=O [0000109-60-4, Acetic acid, propyl ester]
SML or Restriction (mg substance/kg food) [1, 7]: 60 mg substance/kg food
Worst Case Calculation of migration in EU Cube model: Basis for Safety outcome [2, 8]: Converter
Worst Case Calculation of migration in EU Cube model: Basis for Safety outcome [2, 9]: Converter
Worst Case Calculation of migration in EU Cube model: Basis for Safety outcome [2, 10]: Converter
Worst Case Calculation of migration in EU Cube model: Basis for Safety outcome [2, 6]: Converter

O=C(O)c1ccc(-c2ccccc2)cc1 [0000092-92-2, 4-Phenylbenzoic Acid]
Worst-case calculation as a percentage of SML (or restriction), Application 1 ([3]; product SBDEV980): 2.8 percentage of SML (or restriction)
Worst-case calculation as a percentage of SML (or restriction), Application 1 ([3]; product SBDEV1285): 2.8 percentage of SML (or restriction)
Worst-case calculation as a percentage of SML (or restriction), Application 2 ([4]; product SBDEV980): 10.1 percentage of SML (or restriction)
Worst-case calculation as a percentage of SML (or restriction), Application 2 ([4]; product SBDEV1285): 10.1 percentage of SML (or restriction)
SML or Restriction (mg substance/kg food) [5]: 0.09 mg substance/kg food
Worst-case calculation as a percentage of SML (or restriction), EU Cube ([2]; product SBDEV980): 7 percentage of SML (or restriction)
Worst-case calculation as a percentage of SML (or restriction), EU Cube ([2]; product SBDEV1285): 7 percentage of SML (or restriction)
Worst Case Calculation of migration in EU Cube model (as a percentage of SML) [2, 6]: 7 percentage of SML

CCO [ethanol]
SML (or restriction) ([1]; Source of SML or restriction: PR (EU Plastics Regulation No. 10/2011)): 60 mg substance/kg food
SML (or restriction) ([1]; source of SML or restriction: PR (EU Plastics Regulation No. 10/2011)): 60 mg substance/kg food

CCCCOC(=O)CC(O)(CC(=O)OCCCC)C(=O)OCCCC [Tributyl citrate]
SML (or restriction) [1, 11]: 0.05 mg substance/kg food
SML (or restriction) [1, 12]: 0.05 mg substance/kg food

N#Cc1ccc(-c2ccccc2)cc1 [0002920-38-9, 4-Phenylbenzonitrile]
Worst-case calculation as a percentage of SML (or restriction), Application 1 ([3]; product SBDEV980): 2.0 percentage of SML (or restriction)
Worst-case calculation as a percentage of SML (or restriction), Application 1 ([3]; product SBDEV1285): 2.0 percentage of SML (or restriction)
Worst-case calculation as a percentage of SML (or restriction), Application 2 ([4]; product SBDEV980): 7.2 percentage of SML (or restriction)
Worst-case calculation as a percentage of SML (or restriction), Application 2 ([4]; product SBDEV1285): 7.2 percentage of SML (or restriction)
SML or Restriction (mg substance/kg food) [5]: 0.09 mg substance/kg food
Worst-case calculation as a percentage of SML (or restriction), EU Cube ([2]; product SBDEV980): 5 percentage of SML (or restriction)
Worst-case calculation as a percentage of SML (or restriction), EU Cube ([2]; product SBDEV1285): 5 percentage of SML (or restriction)
Worst Case Calculation of migration in EU Cube model (as a percentage of SML) [2, 6]: 5 percentage of SML

From patent US11927585B2, “Solvent-based inks and coatings for food contact applications” (SUN CHEMICAL CORPORATION, priority 2020, dated 2024)
